In assay [1] the target is Macrophage-stimulating protein receptor (Homo sapiens, UniProt Q04912).
Assay [2] has as its target T1, Acyl-CoA dehydrogenase family member 11 (Homo sapiens, UniProt Q709F0).
T1 sequence (Q709F0 whole entry): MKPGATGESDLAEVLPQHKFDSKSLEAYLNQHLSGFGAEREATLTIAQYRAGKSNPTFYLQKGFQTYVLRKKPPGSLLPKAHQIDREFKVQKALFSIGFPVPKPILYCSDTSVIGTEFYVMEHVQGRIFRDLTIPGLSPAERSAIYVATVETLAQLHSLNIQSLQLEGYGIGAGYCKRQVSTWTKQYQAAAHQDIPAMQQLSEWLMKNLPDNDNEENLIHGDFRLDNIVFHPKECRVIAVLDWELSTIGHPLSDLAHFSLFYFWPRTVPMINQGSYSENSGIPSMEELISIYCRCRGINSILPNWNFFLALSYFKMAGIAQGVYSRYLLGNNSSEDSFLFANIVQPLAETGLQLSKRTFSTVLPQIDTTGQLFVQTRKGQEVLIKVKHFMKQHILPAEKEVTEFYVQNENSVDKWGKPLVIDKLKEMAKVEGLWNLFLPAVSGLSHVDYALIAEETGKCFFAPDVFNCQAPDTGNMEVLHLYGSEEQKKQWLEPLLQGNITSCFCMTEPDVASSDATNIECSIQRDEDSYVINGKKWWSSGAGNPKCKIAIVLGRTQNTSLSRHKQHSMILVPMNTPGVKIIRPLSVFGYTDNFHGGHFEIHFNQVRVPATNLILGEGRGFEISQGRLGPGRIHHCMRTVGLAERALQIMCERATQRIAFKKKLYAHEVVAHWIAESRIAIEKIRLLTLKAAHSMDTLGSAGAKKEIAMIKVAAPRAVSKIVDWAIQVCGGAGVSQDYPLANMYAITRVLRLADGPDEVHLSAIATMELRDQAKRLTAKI

For assay [3], the target named is Mitogen-activated protein kinase 10 (Homo sapiens, UniProt P53779).
Assay [4] concerns the target T2, RNA cytidine acetyltransferase (Homo sapiens, UniProt Q9H0A0).
T2 sequence (Q9H0A0 whole entry): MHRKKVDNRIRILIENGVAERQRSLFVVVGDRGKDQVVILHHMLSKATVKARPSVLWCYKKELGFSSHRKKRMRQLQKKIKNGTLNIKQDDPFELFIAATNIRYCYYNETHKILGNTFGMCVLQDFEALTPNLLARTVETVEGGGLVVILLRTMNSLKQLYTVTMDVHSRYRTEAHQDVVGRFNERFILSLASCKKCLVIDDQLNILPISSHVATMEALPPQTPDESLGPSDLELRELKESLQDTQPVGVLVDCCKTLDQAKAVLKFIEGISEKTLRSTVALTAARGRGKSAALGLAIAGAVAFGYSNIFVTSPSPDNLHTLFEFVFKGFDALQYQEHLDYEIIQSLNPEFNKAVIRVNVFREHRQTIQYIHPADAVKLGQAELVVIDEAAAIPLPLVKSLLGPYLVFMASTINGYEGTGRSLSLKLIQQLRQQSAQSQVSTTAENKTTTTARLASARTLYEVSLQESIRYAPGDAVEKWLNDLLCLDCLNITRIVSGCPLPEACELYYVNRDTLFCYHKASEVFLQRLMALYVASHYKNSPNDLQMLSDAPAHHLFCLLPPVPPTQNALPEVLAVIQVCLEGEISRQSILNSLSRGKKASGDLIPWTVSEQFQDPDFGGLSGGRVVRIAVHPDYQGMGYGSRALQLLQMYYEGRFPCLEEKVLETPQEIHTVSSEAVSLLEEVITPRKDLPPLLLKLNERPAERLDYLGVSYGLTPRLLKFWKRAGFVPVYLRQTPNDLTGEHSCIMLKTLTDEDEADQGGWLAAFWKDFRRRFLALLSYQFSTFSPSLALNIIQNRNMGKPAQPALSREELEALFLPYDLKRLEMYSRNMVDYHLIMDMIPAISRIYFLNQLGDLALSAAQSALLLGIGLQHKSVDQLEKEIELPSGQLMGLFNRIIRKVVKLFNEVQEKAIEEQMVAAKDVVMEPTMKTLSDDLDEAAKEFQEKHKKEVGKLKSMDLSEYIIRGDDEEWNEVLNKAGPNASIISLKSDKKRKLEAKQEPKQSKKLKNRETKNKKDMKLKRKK

Assay [5] addresses T3, Phosphatidylinositol 5-phosphate 4-kinase type-2 alpha (Homo sapiens, UniProt P48426).
T3 sequence (P48426 whole entry): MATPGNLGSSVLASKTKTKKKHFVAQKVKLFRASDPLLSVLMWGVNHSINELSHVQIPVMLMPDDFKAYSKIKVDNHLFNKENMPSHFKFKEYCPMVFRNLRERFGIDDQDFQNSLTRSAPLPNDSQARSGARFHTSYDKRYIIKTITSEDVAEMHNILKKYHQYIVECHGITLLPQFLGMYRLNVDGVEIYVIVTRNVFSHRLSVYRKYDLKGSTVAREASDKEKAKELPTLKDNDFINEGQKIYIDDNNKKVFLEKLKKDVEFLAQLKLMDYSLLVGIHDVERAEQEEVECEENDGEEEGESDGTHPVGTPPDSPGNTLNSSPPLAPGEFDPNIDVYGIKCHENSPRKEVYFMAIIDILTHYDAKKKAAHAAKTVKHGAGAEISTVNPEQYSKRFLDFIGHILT

The target of assay [6] is T4, Serine/threonine-protein kinase Nek3 (Homo sapiens, UniProt P51956).
T4 sequence (P51956 whole entry): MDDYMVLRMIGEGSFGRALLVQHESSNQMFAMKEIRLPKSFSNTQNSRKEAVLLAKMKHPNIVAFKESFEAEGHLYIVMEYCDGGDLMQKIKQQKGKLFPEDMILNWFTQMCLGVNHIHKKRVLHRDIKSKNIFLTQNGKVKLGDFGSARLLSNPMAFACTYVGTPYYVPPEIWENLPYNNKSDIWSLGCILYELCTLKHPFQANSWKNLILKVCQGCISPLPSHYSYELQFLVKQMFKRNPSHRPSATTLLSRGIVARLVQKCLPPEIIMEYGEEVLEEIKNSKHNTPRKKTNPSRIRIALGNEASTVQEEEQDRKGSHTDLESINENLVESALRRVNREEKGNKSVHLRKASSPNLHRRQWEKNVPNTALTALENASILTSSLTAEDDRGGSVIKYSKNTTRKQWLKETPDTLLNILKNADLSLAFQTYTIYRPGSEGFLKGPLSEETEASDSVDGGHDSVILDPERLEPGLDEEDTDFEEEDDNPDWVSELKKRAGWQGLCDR

The values that follow come from ChEMBL document CHEMBL3991601, “The target landscape of clinical kinase drugs” (Science, 2017).

By Kd is commonly meant the free concentration of one partner at which half of the binding sites on the other are occupied at equilibrium, for simple one-to-one binding.

Structures are written as SMILES. Structures can show the parent of a compound that is named as a salt. The source made the active and inactive calls. Bounds are passed on as bounds.
Further: in the data inactive means no Kd found up to 30 µM.

Sequence of Mitogen-activated protein kinase 10 (P53779 whole entry): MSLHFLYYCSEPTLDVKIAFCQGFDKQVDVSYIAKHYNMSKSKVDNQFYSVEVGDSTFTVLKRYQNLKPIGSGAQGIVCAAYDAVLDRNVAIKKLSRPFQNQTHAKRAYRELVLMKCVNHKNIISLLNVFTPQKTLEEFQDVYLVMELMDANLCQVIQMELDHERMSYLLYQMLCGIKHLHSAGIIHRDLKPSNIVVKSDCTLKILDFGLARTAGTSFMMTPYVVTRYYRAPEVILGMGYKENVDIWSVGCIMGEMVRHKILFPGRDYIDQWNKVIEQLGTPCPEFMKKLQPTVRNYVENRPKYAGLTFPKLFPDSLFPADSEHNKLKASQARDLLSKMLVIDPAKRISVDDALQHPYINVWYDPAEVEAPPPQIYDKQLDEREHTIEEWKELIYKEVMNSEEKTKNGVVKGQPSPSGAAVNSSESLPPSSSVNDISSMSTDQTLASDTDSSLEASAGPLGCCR
Sequence of Macrophage-stimulating protein receptor (Q04912 25-304 limits assumed): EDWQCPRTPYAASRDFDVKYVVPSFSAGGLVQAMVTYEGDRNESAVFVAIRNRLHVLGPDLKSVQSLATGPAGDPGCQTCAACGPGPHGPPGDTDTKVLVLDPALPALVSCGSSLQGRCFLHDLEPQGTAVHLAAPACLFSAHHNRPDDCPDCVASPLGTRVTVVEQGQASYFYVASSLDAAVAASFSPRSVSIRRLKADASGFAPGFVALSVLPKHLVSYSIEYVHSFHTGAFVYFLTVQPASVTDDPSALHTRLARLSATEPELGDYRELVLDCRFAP
Sequence of Macrophage-stimulating protein receptor (Q04912 310-1400 limits assumed): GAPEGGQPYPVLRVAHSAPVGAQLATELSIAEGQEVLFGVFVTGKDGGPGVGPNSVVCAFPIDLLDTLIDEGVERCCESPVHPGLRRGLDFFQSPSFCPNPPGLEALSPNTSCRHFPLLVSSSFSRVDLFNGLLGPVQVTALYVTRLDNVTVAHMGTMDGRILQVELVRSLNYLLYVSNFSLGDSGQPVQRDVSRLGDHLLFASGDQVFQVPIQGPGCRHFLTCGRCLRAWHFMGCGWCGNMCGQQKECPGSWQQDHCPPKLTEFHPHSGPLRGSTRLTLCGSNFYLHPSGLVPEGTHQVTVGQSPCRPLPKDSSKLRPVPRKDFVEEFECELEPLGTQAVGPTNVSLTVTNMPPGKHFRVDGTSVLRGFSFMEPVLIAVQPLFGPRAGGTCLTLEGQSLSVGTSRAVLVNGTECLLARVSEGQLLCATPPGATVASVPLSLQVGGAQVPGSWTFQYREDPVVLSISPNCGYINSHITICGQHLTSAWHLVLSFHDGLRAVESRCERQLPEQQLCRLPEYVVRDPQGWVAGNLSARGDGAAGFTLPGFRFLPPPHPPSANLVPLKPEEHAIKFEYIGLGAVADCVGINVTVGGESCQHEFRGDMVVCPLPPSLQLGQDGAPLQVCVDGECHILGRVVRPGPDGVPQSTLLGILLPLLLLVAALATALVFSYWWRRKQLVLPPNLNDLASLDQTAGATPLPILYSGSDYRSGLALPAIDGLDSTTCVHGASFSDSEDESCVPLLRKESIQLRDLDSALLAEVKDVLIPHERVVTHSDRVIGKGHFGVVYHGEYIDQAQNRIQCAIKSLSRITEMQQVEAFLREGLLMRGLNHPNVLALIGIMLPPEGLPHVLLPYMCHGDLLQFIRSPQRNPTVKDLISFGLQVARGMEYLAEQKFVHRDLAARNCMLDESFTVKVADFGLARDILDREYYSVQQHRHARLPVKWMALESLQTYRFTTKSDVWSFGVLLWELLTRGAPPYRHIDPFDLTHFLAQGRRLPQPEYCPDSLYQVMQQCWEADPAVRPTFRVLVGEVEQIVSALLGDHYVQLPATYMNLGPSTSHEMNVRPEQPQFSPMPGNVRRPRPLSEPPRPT

Consider `CCNC(=O)C#Cc1ccc2c(c1)NC(=O)/C2=C(\Nc1ccc(CN(C)C)cc1)c1ccccc1`, for which the Kd in assay [1], in assay [2], in assay [3], in assay [4], in assay [5] and in assay [6] was > 30 µM (inactive) throughout.
`C=CC(=O)N1CCC[C@H](n2c(=O)n(-c3ccc(Oc4ccccc4)cc3)c3c(N)ncnc32)C1`: the Kd in assay [1], in assay [2], in assay [3], in assay [4], in assay [5] and in assay [6] was > 30 µM (inactive) each time.
Turning to `Cc1nc2cc(-c3nn(C(C)C)c4ncnc(N)c34)ccc2o1`, the Kd in assay [1], in assay [2], in assay [3], in assay [4], in assay [5] and in assay [6] was > 30 µM (inactive) each time.
Turning to `COCc1c(-c2ccc(NC(=O)Nc3cc(C(F)(F)F)ccc3F)c(F)c2)c2c(N)ncnn2c1CN1CCOCC1`, the Kd in assay [1], in assay [2], in assay [3], in assay [4], in assay [5] and in assay [6] was > 30 µM (inactive) throughout.
For `COc1cc(Nc2ncc3c(n2)-c2ccc(Cl)cc2C(c2c(F)cccc2OC)=NC3)ccc1C(=O)O` [ALISERTIB], the Kd in assay [2], in assay [3], in assay [4], in assay [5] and in assay [6] was > 30 µM (inactive) throughout.
`Cc1csc(-c2nnc(Nc3ccc(Oc4ncccc4-c4ccnc(N)n4)cc3)c3ccccc23)c1` [AMG-900]: the Kd in assay [1], in assay [2], in assay [3], in assay [4], in assay [5] and in assay [6] was > 30 µM (inactive) throughout.
Consider `NC(=O)Nc1cc(-c2cccc(F)c2)sc1C(=O)N[C@H]1CCCNC1` [AZD-7762], for which the Kd in assay [1], in assay [2], in assay [3], in assay [4], in assay [5] and in assay [6] was > 30 µM (inactive) throughout.
Turning to `Cc1cc(C(=O)NOCCO)c(Nc2ccc(I)cc2F)n(C)c1=O` [AZD-8330], the Kd in assay [1], in assay [2], in assay [3], in assay [4], in assay [5] and in assay [6] was > 30 µM (inactive) throughout.
Turning to `Cn1cnc2c(F)c(Nc3ccc(Br)cc3F)c(C(=O)NOCCO)cc21` [BINIMETINIB], the Kd in assay [1], in assay [2], in assay [3], in assay [4], in assay [5] and in assay [6] was > 30 µM (inactive) in each case.
As for `CCn1c(C(=O)N(C2CC2)C2CC2)cc2c3c(ncn3C)c(Nc3cc(C)n(C)n3)nc21` [BMS-911543], the Kd in assay [1], in assay [2], in assay [3], in assay [4], in assay [5] and in assay [6] was > 30 µM (inactive) throughout.
Take `CCS(=O)(=O)N1CCN(c2ccc(Nc3ncc(C(N)=O)c(NC4CC4)n3)cc2)CC1` [Cerdulatinib Hydrochloride]: the Kd is > 30 µM (inactive) in assay [1]; > 30 µM (inactive) in assay [2]; > 30 µM (inactive) in assay [4]; > 30 µM (inactive) in assay [5]; 1.1 µM (active) in assay [6].
As to `C[C@@H](Oc1cc(-n2cnc3ccc(CN4CCN(C)CC4)cc32)sc1C(N)=O)c1ccccc1C(F)(F)F` [GSK-461364], the Kd in assay [2], in assay [4] and in assay [5] was > 30 µM (inactive) each time.
With `CNC(=O)c1nn(C)c2c1C(C)(C)Cc1cnc(Nc3ccc(N4CCN(C)CC4)cc3)nc1-2` [MILCICLIB], the Kd is 1.99 µM (active) in assay [1], > 30 µM (inactive) in assay [2], > 30 µM (inactive) in assay [4] and > 30 µM (inactive) in assay [5].
For `Cc1[nH]c(/C=C2\C(=O)Nc3ccccc32)c(C)c1CCC(=O)O` [ORANTINIB], the Kd in assay [1] is > 30 µM (inactive); in assay [2] it was > 30 µM (inactive); in assay [4], 1.24 µM; in assay [5] it was > 30 µM (inactive); in assay [6], > 30 µM (inactive).
For `NC(=O)c1c(OCc2c(F)cc(Br)cc2F)nsc1NC(=O)NCCCCN1CCCC1` [OSI-632], the Kd in assay [2], in assay [3], in assay [4], in assay [5] and in assay [6] was > 30 µM (inactive) in each case.
With `CC(=O)NCC(=O)N1[C@@H]2CC[C@H]1c1ccc(Nc3ncc(C(F)(F)F)c(NC4CCC4)n3)cc12` [PF-03814735], the Kd in assay [2], in assay [3], in assay [4], in assay [5] and in assay [6] was > 30 µM (inactive) throughout.
Turning to `O=C(NOCCO)c1cc(CN2OCCCC2=O)c(F)c(F)c1Nc1ccc(I)cc1F` [RO-4987655], the Kd in assay [2], in assay [4] and in assay [5] was > 30 µM (inactive) in each case.
As to `N#CC[C@H](C1CCCC1)n1cc(-c2ncnc3[nH]ccc23)cn1` [RUXOLITINIB], the Kd in assay [2] was > 30 µM (inactive); in assay [4] it was > 30 µM (inactive); in assay [5], > 30 µM (inactive); in assay [6] it was 29.9 µM (active).
